The values below come from patent US20030050247A1, “Chemically-modified peptides, compositions, and methods of production and use” (priority 2000, published 2003).

For orientation: MIC means the smallest concentration in the dilution series that meets the test's criterion for growth inhibition. Read a high MIC as a less susceptible organism. In general, viability refers to a per cent measure of how many cells are alive, often set against a control. High values mean less harm to the cells, low ones more harm to the cells.

Converted amounts (≈) assume the structure as drawn. Where two headings read alike, the source gives them in different places. The star is where a group is joined. Octanoyl = CCCCCCCC(=O)* Some results are limits rather than exact numbers.

The test system of series [1] is Salmonella typhimurium and Clostridium botulinum. The series is classed as cell-based. As to conditions: food preservative; Example 16.
In series [2] the test system is E. coli. As to the kind of experiment: Antimicrobial activity of peptide-containing fiber (textiles). The note with it: Example 17.
Series [3] relates to K. pneumoniae and P. aeruginosa. As to the kind of experiment: Antimicrobial assay (MIC, growth inhibited by >90%), Examples 2 and 3. The note with it: for efficacy (in words): Example 3, second octyl group, compared to the -NH2 peptides, Trp replaced.
Series [4] is described as follows: in vitro. The note with it: Vero cells (ATCC CCL81), non-infected.
Series [5] relates to Aspergillus niger (ATCC 16888). As to conditions: 22 h at 30° C.
The subject of series [6] is P. aeruginosa. As to the kind of experiment: Antimicrobial assay, bacterial paper mill isolates. The class given is cell-based, Pseudomonas aeruginosa. The note with it: paper mill isolate; TGE medium; 30° C.
The subject of series [7] is X. maltophila. The experiment in a line: Antimicrobial assay, bacterial paper mill isolates. The class given is cell-based, Xanthomonas maltophila. The note with it: paper mill isolate; TGE medium; 37° C.
Series [8] concerns C. acidivorans. As to the kind of experiment: Antimicrobial assay, bacterial paper mill isolates. The series is classed as cell-based, Comamonas acidivorans. The note with it: paper mill isolate; TGE medium; 30° C.
For series [9], the system named is E. cloacae. As to the kind of experiment: Antimicrobial assay, bacterial paper mill isolates. The series is classed as cell-based, Enterobacter cloacae. As to conditions: paper mill isolate; TGE medium; 30° C.
Series [10] relates to Bacillus. As to the kind of experiment: Antimicrobial assay, bacterial cooling tower isolates. The series is classed as cell-based. As to conditions: cooling tower isolate; TGE; 18 hr at 35° C.
Series [11] relates to Desulfovibrio desulfuricans (ATCC 7757).
In series [12] the test system is Aeromonas. The note with it: 18 h.

Regarding Octanoyl-Arg-Trp-NH2, the MIC result in [1] and in series [2] was “≦ 15 μg/ml” throughout. For the same molecule, in [3] (Example 2, acyl chain length and amino acid composition), the “peptide efficacy (MIC values, in words)” value was “greatest activity”.
Octanoyl-Arg-Cys-NH-octyl: in [1], the MIC result is on record as “≦ 15 μg/ml”.
On to Octanoyl-Arg-Tyr-NH-octyl, for which, in [3], the “efficacy (in words)” value is “enhanced efficacy”.
As for Octanoyl-Arg-Arg-Arg-NH-octyl, in [2], the MIC entry was “≦ 8 μg/ml”.
`CCCCCCCCNC(=O)[C@H](CCCNC(=N)N)NC(=O)[C@H](CCCNC(=N)N)NC(=O)CCCCCCC` [Octanoyl-Arg-Arg-NH-octyl] registered a viability at 125 ppm in series [4] of 59%.
For the molecule Nonanoyl-Arg-Arg-NH-nonyl, in series [2], the MIC result is given as “≦ 2 μg/ml”.
With `CCCCCCCCCNC(=O)[C@H](CCCNC(=N)N)NC(=O)CCCCCCCC` [Nonanoyl-Arg-NH-nonyl], the MIC entry in series [1] is “≦ 4 μg/ml”. The results for the Growth was inhibited in series [5] (1 μg/ml of peptide), in series [5] (7.8 μg/ml) and in series [5] (concentrations as low as 15.6 μg/ml) were 43%, 83% and 98%, respectively.
With Octanoyl-Arg-Trp-Phe-NH2, the MIC entry in series [1] and in series [2] was “≦ 15 μg/ml” throughout.
`CCCCCCCCNC(=O)[C@H](CCCNC(=N)N)NC(=O)CCCCCCC` [Octanoyl-R-NH-octyl, Octanoyl-Arg-NH-octyl]: the MIC entry in series [6] was “≦10 μg/ml”; in series [7] it was “≦5 μg/ml”; in series [8] it was more than 313 µg/mL; in [9], more than 313 µg/mL; in [10] it was 15.6 µg/mL (≈ 37.9 µM); in series [11], 62.5 to 125 µg/mL. The MIC in series [12] turned out to be 62.5 µg/mL (≈ 152 µM).
On to Octanoyl-Arg-Ala-NH-octyl, for which the MIC result in [1] is “≦ 15 μg/ml”.
Consider Octanoyl-Arg-Phe-NH-octyl, for which the MIC result in [1] is recorded as “≦ 8 μg/ml”. Moreover, the “efficacy (in words)” value in series [3] was “enhanced efficacy”.
For the molecule Octanoyl-Lys-Arg-NH-octyl, the MIC entry in [1] is on record as “≦ 4 μg/ml”.
As to Decanoyl-Arg-NH-decyl, the MIC entry in series [2] is “≦ 15 μg/ml”.
With “Octanoyl-Arg-Phe-Phe-Arg-NH-octyl (RFFR; HELM PEPTIDE1{[CCCCCCCC(=O)[*:2]].R.F.F.R.[CCCCCCCCN[*:1]]}$$$$V2.0; SMILES CCCCCCCCNC(=O)[C@H](CCCNC(=N)N)NC(=O)[C@H](Cc1ccccc1)NC(=O)[C@H](Cc1ccccc1)NC(=O)[C@H](CCCNC(=N)N)NC(=O)CCCCCCC)”, the MIC entry in series [2] is given as “≦ 4 μg/ml”.
